This is an account of results in patent publication US5968514A (priority 1994, dated 1999).

In test [1] the test system is class II MHC molecules on Raji cells. It is filed as binding, human.
Test [2] has as its system human peripheral mononuclear cells. It is filed as cell-based.
In test [3] the test system is class II MHC molecules on Raji cells. It is filed as binding, human. The source holds these as a separate data set.
In test [4] the test system is class II-negative L cells. The format is binding.
Test [5] relates to class II MHC molecules (I-A^d and I-E^d) on A20 cells. The format is binding, mouse.
Test [6] concerns class II MHC molecules on A20 cells. The format is binding, mouse. The following applies: for IC50: read-out: concentration reducing 125I-MMTV ORF(76-119) binding to A20 cells by 50%.
Test [7] concerns the target I-Aβ^b (60-90) peptide of class II MHC β-chain (Mus musculus, UniProt P14483). The format is binding, murine.
Test [8] has as its system human PMNC, APC and T cell fractions. The format is cell-based.
Test [9] has as its system Whole PMNC. The format is cell-based, human.

“And” between values parts separate entries of the source, which are not always exact repeats. Equal values may be shown once. “Also recorded” adds a separate entry of the source. Read-outs that look alike come from different tables or passages of the source. Ends that are not written are not given here.

I-Aβ^b (60-90) peptide of class II MHC β-chain, sequence (P14483 87-117): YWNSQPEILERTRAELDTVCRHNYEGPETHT

Take “HIV-1 Nef(1-38): SEQ ID NO. 14 MGGKWSKSSVVGWPTVRERMRRAEPAADGVGAASRDLE”: the “reduction of 125I-SEA binding to Raji cells” value in test [1] was “slight inhibitory effects; also recorded: slightly reduced”.

Consider “HIV-1 Nef(31-65): SEQ ID NO. 15 GAASRDLEKHGAITSSNTAATNAACAWLEAQEEEE”, for which the “reduction of 125I-SEA binding to Raji cells” value in test [1] is “slight inhibitory effects; also recorded: slightly reduced”.

Take “HIV-1 Nef(123-160): SEQ ID NO. 18 DWQNYTPGPGVRYPLTFGWCYKLVPVEPDKVEEANKGE”: in test [2] (96 h), the “SI ± sd, cells cultured with Anti-IgM + peptide” value is 14.1 ± 0.5 and the “SI ± sd, cells cultured with ConA + peptide” value was determined as 4.5 ± 0.4. Further, the IC50 in test [3] (read-out: concentration reducing 125I-HIV-1 Nef(123-160) binding to Raji cells by 50%) was 30 µM.

For “MMTV ORF(76-119): SEQ ID NO. 1 DSFNNSSVQDYNLNDSENSTFLLGQGPQPTSSYKPHRLCPSEIE”, the “binding of MMTV ORF(76-119) to class II-negative L cell line in comparison to A20 cells” value in test [4] is recorded as “insignificant”. Moreover, the “reduction of 125I-SEA binding to A20 cells” value in test [5] is listed as “approximately 63%”. Also, the IC50 in test [5] (read-out: concentration reducing 125I-SEA binding to A20 cells by 50%) is 20 µM and ~20 µM; in test [6], 25 µM. In addition, the “direct binding of 125I-labelled peptide to A20 cells” value in [6] was “did bind”. Besides, the “competition with 125I-SEA and 125I-MMTV ORF(76-119) for binding to I-Aβ^b (60-90) peptide” value in [7] is reported as “competed”.

With “NKGENTSLLHPVSLHGMDDPEREVLEWRFD [HIV-1 Nef(156-186)]”, the “SI ± sd, cells cultured with ConA + peptide” value in test [2] came to 5.2 ± 1.6.

Toxic shock syndrome toxin-1 [TSST-1]: in test [6], the “competition with 125I-MMTV ORF(76-119) for binding to A20 cells (in words)” value (“competition … (in words)” below) is “did not compete”.

Turning to concanavalin A [ConA], the “SI ± sd, stimulus alone” value in test [2] is recorded as 6.0 ± 0.4. Further, in test [8], the “SI ± sd, APC” value is on record as 0.9 ± 0.1 and the “SI ± sd, APC + T cells” value is 40.7 ± 4.3. Further, in [9], the “IFNγ at 24 H” value amounted to 10, the “IFNγ at 48 h” value came to 350 ± 71, the “IFNγ at 72 h” value came to 400 ± 141 and the “IFNγ at 96 h” value is recorded as 150 ± 71. Also, in [9], the “level of IFNγ production (comparison in words)” value is on record as “levels much lower than that of Nef or SEA”.

Turning to staphylococcal enterotoxin A [SEA], in [2], the “SI ± sd, stimulus alone” value turned out to be 17.6 ± 3.3. For the same substance, in test [5], the “effectiveness as competitor of 125I-SEA binding relative to MMTV ORF(76-119)” value was determined as 20 times. Moreover, in [1] (read-out: concentration reducing 125I-SEA binding to Raji cells by 50%), the IC50 is 0.2 µM. In test [3], the “inhibition of 125I-HIV-1 Nef(123-160) binding to Raji cells (in words)” value is recorded as “binding as well as SEE, but it was more effective than SEC1 or SEB”. In addition, in test [6], the “competition … (in words)” value is listed as “a more potent competitor” and the IC50 came to 1.8 µM. The “competition with 125I-SEA and 125I-MMTV ORF(76-119) for binding to I-Aβ^b (60-90) peptide” value in [7] is on record as “competed”. Moreover, in test [8], the “SI ± sd, APC” value was determined as 1.6 ± 0.2 and the “ratio of the stimulation index for whole PMNC versus reconstituted APC/T cells” value was about 6.78. Also, in test [9], the “IFNγ at 24 H” value is given as 55 ± 7, the “IFNγ at 48 h” value was 550 ± 141, the “IFNγ at 72 h” value is 3000 and the “IFNγ at 96 h” value is listed as 2000.

Turning to staphylococcal enterotoxin B [SEB], the “inhibition of 125I-HIV-1 Nef(123-160) binding to Raji cells (in words)” value in [3] is listed as “it was more effective than SEC1 or SEB”. In test [6], the “competition … (in words)” value was “competed less effectively than SEA”.
